Data as given in the supplement of paper PMC10307832.

Experiments:
Experiment in all cases: relative viability (nuclei count vs DMSO), 5 days (fraction); higher = more cells survive
BGJ398 + Bortezomib = compound: CCN1CCN(c2ccc(Nc3cc(N(C)C(=O)Nc4c(Cl)c(OC)cc(OC)c4Cl)ncn3)cc2)CC1 [BGJ398] + CC(C)C[C@H](NC(=O)[C@H](Cc1ccccc1)NC(=O)c1cnccn1)B(O)O [Bortezomib] (partner 0.002 µM)
In short: (§1)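 Values are medians from duplicate plates. Each reflects relative viability, defined as the nuclei count of treated wells over that of vehicle wells. Lung cancer cell lines in 1536-well plates were pin-tool dosed one day after seeding with one drug alone or with a fixed anchor-drug dose plus five library-drug doses (not always all listed) in √10 steps, then fixed, stained and imaged at 4× after 5 days.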

BGJ398 + Linsitinib = compound: CCN1CCN(c2ccc(Nc3cc(N(C)C(=O)Nc4c(Cl)c(OC)cc(OC)c4Cl)ncn3)cc2)CC1 [BGJ398] + C[C@]1(O)C[C@@H](c2nc(-c3ccc4ccc(-c5ccccc5)nc4c3)c3c(N)nccn32)C1 [Linsitinib] (partner 1 µM)
In short: as §1

[1] = compound: C1=CC2=NC=CN=C2C=C1/C=C/3\C(=O)NC(=O)S3 + Cc1cc(Nc2cc(N3CCN(C)CC3)nc(Sc3ccc(NC(=O)C4CC4)cc3)n2)n[nH]1 [Tozasertib] (partner 0.1 µM)
In short: as §1

BGJ398 + Foretinib = compound: CCN1CCN(c2ccc(Nc3cc(N(C)C(=O)Nc4c(Cl)c(OC)cc(OC)c4Cl)ncn3)cc2)CC1 [BGJ398] + COc1cc2c(Oc3ccc(NC(=O)C4(C(=O)Nc5ccc(F)cc5)CC4)cc3F)ccnc2cc1OCCCN1CCOCC1 [Foretinib] (partner 0.25 µM)
In short: as §1

Cell Line | relative viability (BGJ398 + Bortezomib; first compound 0.01 µM) | relative viability (BGJ398 + Bortezomib; first compound 0.03162 µM) | relative viability (BGJ398 + Bortezomib; first compound 0.1 µM) | relative viability (BGJ398 + Bortezomib; first compound 0.3162 µM) | relative viability (BGJ398 + Bortezomib; first compound 1 µM) | relative viability (BGJ398 + Linsitinib; first compound 0.01 µM) | relative viability (BGJ398 + Linsitinib; first compound 0.03162 µM) | relative viability (BGJ398 + Linsitinib; first compound 0.1 µM) | relative viability (BGJ398 + Linsitinib; first compound 0.3162 µM) | relative viability (BGJ398 + Linsitinib; first compound 1 µM) | relative viability ([1]; first compound 0.02 µM) | relative viability ([1]; first compound 0.06325 µM) | relative viability ([1]; first compound 0.2 µM) | relative viability ([1]; first compound 0.6325 µM) | relative viability ([1]; first compound 2 µM) | relative viability (BGJ398 + Foretinib; first compound 0.01 µM) | relative viability (BGJ398 + Foretinib; first compound 0.03162 µM) | relative viability (BGJ398 + Foretinib; first compound 0.1 µM) | relative viability (BGJ398 + Foretinib; first compound 0.3162 µM) | relative viability (BGJ398 + Foretinib; first compound 1 µM)
NCI-H2228 | 1.34 | 1.08 | 0.782 | 0.942 | 0.925 | 0.63 | 0.438 | 0.19 | 0.852 | 0.719 | 0.302 | 0.228 | 0.234 | 0.21 | 0.221 | 0.776 | 0.893 | 0.848 | 0.822 | 0.826
NCI-H2347 | 0.737 | 0.835 | 0.9 | 0.88 | 0.784 | 0.989 | 1.08 | 0.975 | 0.968 | 1 | 0.553 | 0.554 | 0.546 | 0.633 | 0.601 | 1.02 | 1.12 | 0.838 | 0.717 | 0.741
NCI-H2405 | 0.976 | 0.99 | 1 | 0.98 | 0.785 | 0.863 | 0.892 | 0.982 | 1.07 | 1.01 | 0.764 | 0.768 | 0.73 | 0.727 | 0.637 | 1.03 | 1.1 | 1.1 | 1.09 | 0.972
NCI-H3122 | 1.04 | 0.998 | 1 | 1.02 | 1.09 | 1 | 1.06 | 0.997 | 1.05 | 1.02 | 0.401 | 0.418 | 0.331 | 0.38 | 0.4 | 1.01 | 0.973 | 0.963 | 0.89 | 0.971
PC-3 [JPC-3] | 0.851 | – | 0.914 | 0.804 | 0.765 | 1.01 | – | 0.959 | 0.864 | 1.01 | 0.811 | 0.811 | 0.905 | 0.913 | 0.869 | 1.15 | – | 1.06 | 1 | 1.02
PC-14 | 0.952 | 0.85 | 0.791 | 0.868 | 0.878 | 0.902 | 1.05 | 0.902 | 1 | 1.06 | 0.579 | 0.754 | 0.571 | 0.546 | 0.572 | 0.905 | 0.618 | 1.02 | 0.802 | 1.03
RERF-LC-KJ | 1.06 | 1.17 | 1.2 | 1.31 | 1.18 | 0.863 | 0.894 | 0.901 | 0.865 | 0.945 | 0.443 | 0.613 | 0.592 | 0.452 | 0.46 | 0.912 | 0.899 | 0.961 | 0.911 | 0.851
SK-LU-1 | 1.11 | 1.27 | 1.51 | 1.14 | 1.14 | 1.1 | 1.01 | 1.2 | 1.15 | 1.21 | 0.367 | 0.297 | 0.381 | 0.357 | 0.316 | 0.716 | 0.833 | 0.778 | 0.791 | 0.869
SW 1573 | 0.948 | 1.05 | 0.909 | 0.964 | 0.91 | 0.859 | 0.894 | 0.886 | 0.812 | 0.933 | 0.192 | 0.201 | 0.183 | 0.183 | 0.204 | 0.91 | 1.13 | 0.866 | 0.594 | 0.973
UMC-11 | 0.759 | 0.632 | 0.706 | 0.661 | 0.475 | 1.01 | 0.982 | 1.04 | 1.03 | 1.01 | 0.205 | 0.193 | 0.202 | 0.203 | 0.192 | 0.962 | 1 | 1.14 | 0.977 | 0.924
